Data: ChEMBL document CHEMBL3880421, “Indazole compounds and pharmaceutical compositions for inhibiting protein kinases, and methods for their use” (2003)

Columns and labels:
Assay type in all cases: functional
Conditions in all cases: Homo sapiens
[1] = Antiproliferative activity against VEGF-stimulated HUVEC cells assessed as reduction in cell viability at 10 nM preincubated for 1 hr followed by addition of VEGF measured after 72 hrs by MTT assay
[2] = Antiproliferative activity against VEGF-stimulated HUVEC cells assessed as reduction in cell viability at 0.5 nM preincubated for 1 hr followed by addition of VEGF measured after 72 hrs by MTT assay
[3] = Antiproliferative activity against VEGF-stimulated HUVEC cells assessed as reduction in cell viability at 2 nM preincubated for 1 hr followed by addition of VEGF measured after 72 hrs by MTT assay

| Compound | inhibition at 0.01 µM [1] [%] | inhibition at 0.0005 µM [2] [%] | inhibition at 0.002 µM [3] [%] |
| --- | --- | --- | --- |
| CN1CC(C(=O)Nc2cccc(C(=O)c3ccc4c(/C=C/c5ccccc5)n[nH]c4c3)c2)CC1=O (centres undefined) | 10 |  |  |
| CCCN(CCC)CC(=O)Nc1cccc(C(=O)c2ccc3c(/C=C/c4ccccc4)n[nH]c3c2)c1 | -2 |  |  |
| O=C(c1cccc(NC(=O)C2CC3C=CCC(C3)C2)c1)c1ccc2c(/C=C/c3ccccc3)n[nH]c2c1 (centres undefined) | 56 |  |  |
| O=C(Cc1cc(F)cc(F)c1)Nc1cccc(C(=O)c2ccc3c(/C=C/c4ccccc4)n[nH]c3c2)c1 | 87 |  |  |
| COc1cccc(CC(=O)Nc2cccc(C(=O)c3ccc4c(/C=C/c5ccccc5)n[nH]c4c3)c2)c1 | 87 |  |  |
| O=C(CC1=CCCCC1)Nc1cccc(Oc2ccc3c(/C=C/c4ccccc4)n[nH]c3c2)c1 | 92 |  |  |
| CN(C)CCCC(=O)Nc1cccc(C(=O)c2ccc3c(/C=C/c4ccccc4)n[nH]c3c2)c1 | 24 |  |  |
| COc1ccc(C#N)c(C(=O)Nc2cccc(C(=O)c3ccc4c(/C=C/c5ccccc5)n[nH]c4c3)c2)c1 | -20 |  |  |
| CC1(C)OC(=O)CC1C(=O)Nc1cccc(Oc2ccc3c(/C=C/c4ccccc4)n[nH]c3c2)c1 (centres undefined) | 25 |  |  |
| O=C(Nc1cccc(Oc2ccc3c(/C=C/c4ccccc4)n[nH]c3c2)c1)C1=C[C@@H](O)[C@@H](O)[C@H](O)C1 | 25 |  |  |
| CC(C)=NOC(C)C(=O)Nc1cccc(Nc2ccc3c(/C=C/c4ccccc4)n[nH]c3c2)c1 (centres undefined) | -1 |  |  |
| CCC(C(=O)Nc1cccc(C(=O)c2ccc3c(/C=C/c4ccccc4)n[nH]c3c2)c1)c1ccccc1C (centres undefined) | 3 |  |  |
| CN(C)CCCC(=O)Nc1cccc(Nc2ccc3c(/C=C/c4ccccc4)n[nH]c3c2)c1 | 30 |  |  |
| C[C@@]12C[C@H]3C[C@H]1C[C@@]3(C(=O)Nc1cccc(C(=O)c3ccc4c(/C=C/c5ccccc5)n[nH]c4c3)c1)C2 | -1 |  |  |
| COc1cccc(CC(=O)Nc2cccc(Oc3ccc4c(/C=C/c5ccccc5)n[nH]c4c3)c2)c1 | 86 |  |  |
| O=C(Nc1cccc(Oc2ccc3c(/C=C/c4ccccc4)n[nH]c3c2)c1)C(O)c1ccccc1 (centres undefined) | 56 |  |  |
| O=C1C[C@H](C(=O)Nc2cccc(Oc3ccc4c(/C=C/c5ccccc5)n[nH]c4c3)c2)NC(=O)N1 | -6 |  |  |
| O=C(CCC(=O)N1CCCC1)Nc1cccc(C(=O)c2ccc3c(/C=C/c4ccccc4)n[nH]c3c2)c1 | 27 |  |  |
| CC1(C)OC(=O)[C@H](CC(=O)Nc2cccc(C(=O)c3ccc4c(/C=C/c5ccccc5)n[nH]c4c3)c2)O1 | 19 |  |  |
| O=C1NCC(C(=O)Nc2cccc(Oc3ccc4c(/C=C/c5ccccc5)n[nH]c4c3)c2)N1 (centres undefined) | 40 |  |  |
| CC(C)C(=O)Nc1cccc(Nc2ccc3c(/C=C/c4ccccc4)n[nH]c3c2)c1 | 24 |  |  |
| C/C(=C\C(=O)Nc1cccc(Nc2ccc3c(/C=C/c4ccccc4)n[nH]c3c2)c1)c1ccccc1C | 75 |  |  |
| CC(C)(C)[C@@H](O)C(=O)Nc1cccc(Oc2ccc3c(/C=C/c4ccccc4)n[nH]c3c2)c1 | 30 |  |  |
| CC(C)(C)c1ccc(C(=O)Nc2cccc(Oc3ccc4c(/C=C/c5ccccc5)n[nH]c4c3)c2)o1 | 52 |  |  |

| Compound | inhibition at 0.01 µM [1] [%] | inhibition at 0.0005 µM [2] [%] | inhibition at 0.002 µM [3] [%] |
| --- | --- | --- | --- |
| CC(C)CC(=O)C(=O)Nc1cccc(C(=O)c2ccc3c(/C=C/c4ccccc4)n[nH]c3c2)c1 | 81 |  |  |
| O=C(Cc1cc(F)ccc1F)Nc1cccc(C(=O)c2ccc3c(/C=C/c4ccccc4)n[nH]c3c2)c1 | 80 |  |  |
| COc1ccc(C#N)c(C(=O)Nc2cccc(Oc3ccc4c(/C=C/c5ccccc5)n[nH]c4c3)c2)c1 | 18 |  |  |
| CC1(C)OC(=O)[C@H](CC(=O)Nc2cccc(Oc3ccc4c(/C=C/c5ccccc5)n[nH]c4c3)c2)O1 | 22 |  |  |
| O=C1CC[C@H](C(=O)Nc2cccc(Nc3ccc4c(/C=C/c5ccccc5)n[nH]c4c3)c2)N1 | 20 |  |  |
| Cc1nc(S)sc1CC(=O)Nc1cccc(C(=O)c2ccc3c(/C=C/c4ccccc4)n[nH]c3c2)c1 | 24 |  |  |
| CN1CSCCC1C(=O)Nc1cccc(Nc2ccc3c(/C=C/c4ccccc4)n[nH]c3c2)c1 (centres undefined) | 0 |  |  |
| CC1(C)C(C(=O)Nc2cccc(Nc3ccc4c(/C=C/c5ccccc5)n[nH]c4c3)c2)C1(C)C | 25 |  |  |
| CC(=O)N1CCC[C@@H]1C(=O)Nc1cccc(C(=O)c2ccc3c(/C=C/c4ccccc4)n[nH]c3c2)c1 | 37 |  |  |
| O=C(c1cccc(NC(=O)C2CC3CC(O)C2C3)c1)c1ccc2c(/C=C/c3ccccc3)n[nH]c2c1 (centres undefined) | 64 |  |  |
| O=C(Cc1cccnc1)Nc1cccc(Nc2ccc3c(/C=C/c4ccccc4)n[nH]c3c2)c1 | 43 |  |  |
| O=C(CC1CC2CCC1C2)Nc1cccc(Nc2ccc3c(/C=C/c4ccccc4)n[nH]c3c2)c1 (centres undefined) | 87 |  |  |
| C[C@@H]1[C@H](C)[C@H](C)C[C@@H]1C(=O)Nc1cccc(C(=O)c2ccc3c(/C=C/c4ccccc4)n[nH]c3c2)c1 | 5 |  |  |
| Cc1cc(C(=O)Nc2cccc(Oc3ccc4c(/C=C/c5ccccc5)n[nH]c4c3)c2)n[nH]1 | 150 |  |  |
| O=C(CCN1CCCCC1)Nc1cccc(Nc2ccc3c(/C=C/c4ccccc4)n[nH]c3c2)c1 | 30 |  |  |
| O=C1CC[C@H](C(=O)Nc2cccc(C(=O)c3ccc4c(/C=C/c5ccccc5)n[nH]c4c3)c2)N1 | 32 |  |  |
| C[C@@H]1[C@H](C)[C@H](C)C[C@@H]1C(=O)Nc1cccc(Oc2ccc3c(/C=C/c4ccccc4)n[nH]c3c2)c1 | 23 |  |  |
| Cc1cc(C(=O)Nc2cccc(Oc3ccc4c(/C=C/c5ccccc5)n[nH]c4c3)c2)c(C)[nH]1 | 52 |  |  |
| CO[C@H](C(=O)Nc1cccc(Nc2ccc3c(/C=C/c4ccccc4)n[nH]c3c2)c1)c1ccccc1 | 80 |  |  |
| CC(C)(C)c1ccc(C(=O)Nc2cccc(Nc3ccc4c(/C=C/c5ccccc5)n[nH]c4c3)c2)o1 | 60 |  |  |
| C[C@@]12C[C@H]3C[C@H]1C[C@@]3(C(=O)Nc1cccc(Oc3ccc4c(/C=C/c5ccccc5)n[nH]c4c3)c1)C2 | 30 |  |  |
| O=C(NC1CCc2ccccc21)c1ccccc1Nc1ccc2c(/C=C/c3ccccn3)n[nH]c2c1 (centres undefined) |  | 19 | 86 |
| CN(C)CC(=O)NNC(=O)c1ccccc1Nc1ccc2c(/C=C/c3ccccn3)n[nH]c2c1 |  | 41 | 16 |
| O=C(NC1CCCCCCC1)c1ccccc1Nc1ccc2c(/C=C/c3ccccn3)n[nH]c2c1 |  | 14 | 60 |

| Compound | inhibition at 0.01 µM [1] [%] | inhibition at 0.0005 µM [2] [%] | inhibition at 0.002 µM [3] [%] |
| --- | --- | --- | --- |
| CNC(=O)c1ccccc1Nc1ccc2c(/C=C/c3ccccn3)n[nH]c2c1 |  | 8 | 21 |
| O=C(NOc1ccccc1)c1ccccc1Nc1ccc2c(/C=C/c3ccccn3)n[nH]c2c1 |  | 27 | 80 |
| C[N+]12CC[C@@H]1C(NC(=O)c1ccccc1Nc1ccc3c(/C=C/c4ccccn4)n[nH]c3c1)C2 (some centres undefined) |  | 15 | -9 |
| CCN(CCNC(=O)c1ccccc1Nc1ccc2c(/C=C/c3ccccn3)n[nH]c2c1)c1cccc(C)c1 |  | 17 | 1 |
| CS(=O)(=O)NNC(=O)c1ccccc1Nc1ccc2c(/C=C/c3ccccn3)n[nH]c2c1 |  | 9 | 1 |
| CCN(CC)CCCNC(=O)c1ccccc1Nc1ccc2c(/C=C/c3ccccn3)n[nH]c2c1 |  | 31 | -1 |
| CC(CN(C)C)NC(=O)c1ccccc1Nc1ccc2c(/C=C/c3ccccn3)n[nH]c2c1 (centres undefined) |  | 23 | 17 |
| O=C(NCCC1=CCCCC1)c1ccccc1Nc1ccc2c(/C=C/c3ccccn3)n[nH]c2c1 |  | 24 | 86 |
| O=C(Nn1cnnc1)c1ccccc1Nc1ccc2c(/C=C/c3ccccn3)n[nH]c2c1 |  | 17 | 13 |
| CC(C)(C)OC(=O)NCCNC(=O)c1ccccc1Nc1ccc2c(/C=C/c3ccccn3)n[nH]c2c1 |  | 78 | 60 |
| O=C(NCC(c1ccccc1)c1ccccc1)c1ccccc1Nc1ccc2c(/C=C/c3ccccn3)n[nH]c2c1 |  | 11 | 15 |
| CC1(C)CC(NC(=O)c2ccccc2Nc2ccc3c(/C=C/c4ccccn4)n[nH]c3c2)CC(C)(C)N1 |  | 35 | 10 |
| O=C(NCCCO)c1ccccc1Nc1ccc2c(/C=C/c3ccccn3)n[nH]c2c1 |  | 8 to 24 | 23 to 31 |
| CCCCC(CC)NC(=O)c1ccccc1Nc1ccc2c(/C=C/c3ccccn3)n[nH]c2c1 (centres undefined) |  | 31 | 30 |
| CN(C)NC(=O)c1ccccc1Nc1ccc2c(/C=C/c3ccccn3)n[nH]c2c1 |  | 31 | 20 |
| O=C(Nc1nc2ccccc2[nH]1)c1ccccc1Nc1ccc2c(/C=C/c3ccccn3)n[nH]c2c1 |  | 18 | 43 |
| O=C(Nc1ccon1)c1ccccc1Nc1ccc2c(/C=C/c3ccccn3)n[nH]c2c1 |  | 6 | 16 |
| CC1CCCCN1CCCNC(=O)c1ccccc1Nc1ccc2c(/C=C/c3ccccn3)n[nH]c2c1 (centres undefined) |  | 25 | 15 |
| NC(=O)CCNC(=O)c1ccccc1Nc1ccc2c(/C=C/c3ccccn3)n[nH]c2c1 |  | 8 | 18 |
| O=C(NCCCN1CCOCC1)c1ccccc1Nc1ccc2c(/C=C/c3ccccn3)n[nH]c2c1 |  | 5 | 14 |
| CCCCC(=O)NNC(=O)c1ccccc1Nc1ccc2c(/C=C/c3ccccn3)n[nH]c2c1 |  | 40 | 94 |
| Nc1ccc(CNC(=O)c2ccccc2Nc2ccc3c(/C=C/c4ccccn4)n[nH]c3c2)cc1 |  | 45 | 88 |
| Cc1csc(NC(=O)c2ccccc2Nc2ccc3c(/C=C/c4ccccn4)n[nH]c3c2)n1 |  | 15 | 95 |
| O=C(NC1CCC1)c1ccccc1Nc1ccc2c(/C=C/c3ccccn3)n[nH]c2c1 |  | 42 | 80 |
